According to US7875604B2, “Compounds that inhibit HIV particle formation” (University of Virginia Patent Foundation, priority 2004, dated 2011):
Values joined by “and” are separate entries in the source; they are usually repeats but may differ in a detail not shown here. Equal values may be shown once. Read-outs that look alike come from different tables or passages of the source.

Key:
[1] = test system: HIV-1 BR/93/021; assay: Anti-HIV efficacy in fresh human PBMCs, reverse transcriptase readout, HIV-1 BR/93/021; assay type: cell-based
Method: (§1) Compounds were evaluated for their ability to inhibit HIV replication in fresh human PBMCs. The assay was performed as follows.
(§2) Fresh human PBMCs, seronegative for HIV and HBV, were isolated from screened donors (Interstate Blood Bank, Inc. Memphis, Tenn.). Cells were pelleted/washed 2-3 times by low speed centrifugation and re-suspension in PBS to remove contaminating platelets. The Leukophoresed blood was then diluted 1:1 with Dulbecco's Phosphate Buffered Saline (DPBS) and layered over 14 mL of Lymphocyte Separation Medium (LSM; Cellgro® by Mediatech, Inc.; density 1.078+/−0.002 g/ml; Cat.#85-072-CL) in a 50 mL centrifuge tube and then centrifuged for 30 minutes at 600×g. Banded PBMCs were gently aspirated from the resulting interface and subsequently washed 2× with PBS by low speed centrifugation. After the final wash, cells were enumerated by trypan blue exclusion and re-suspended at 1×10^7 cells/mL in RPMI 1640 supplemented with 15% Fetal Bovine Serum (FBS), and 2 mM L-glutamine, 4 μg/mL Phytohemagglutinin (PHA-P, Sigma). The cells were allowed to incubate for 48-72 hours at 37° C. After incubation, PBMCs were centrifuged and resuspended in RPMI 1640 with 15% FBS, 2 mM L-glutamine, 100 U/mL penicillin, 100 μg/mL streptomycin, 10 μg/mL gentamycin, and 20 U/mL recombinant human IL-2 (R&D Systems, Inc). IL-2 is included in the culture medium to maintain the cell division initiated by the PHA mitogenic stimulation. PBMCs were maintained in this medium at a concentration of 1-2×10^6 cells/mL with biweekly medium changes until used in the assay protocol. Cells were kept in culture for a maximum of two weeks before being deemed too old for use in assays and discarded. Monocytes were depleted from the culture as the result of adherence to the tissue culture flask.
(§3) For the standard PBMC assay, PHA-P stimulated cells from at least two normal donors were pooled (mixed together), diluted in fresh medium to a final concentration of 1×10^6 cells/mL, and plated in the interior wells of a 96 well round bottom microplate at 50 μL/well (5×10^4 cells/well) in a standard format developed by the Infectious Disease Research department of Southern Research Institute. Pooling (mixing) of mononuclear cells from more than one donor is used to minimize the variability observed between individual donors, which results from quantitative and qualitative differences in HIV infection and overall response to the PHA and IL-2 of primary lymphocyte populations. Each plate contains virus/cell control wells (cells plus virus), experimental wells (drug plus cells plus virus) and compound control wells (drug plus media without cells, necessary for MTS monitoring of cytotoxicity). Since HIV-1 is not cytopathic to PBMCs, this allows the use of the same assay plate for both antiviral activity and cytotoxicity measurements. Test drug dilutions were prepared at a 2× concentration in microtiter tubes and 100 μL of each concentration was placed in appropriate wells using the standard format. 50 μL of a predetermined dilution of virus stock was placed in each test well (final MOI≅0.1). The PBMC cultures were maintained for seven days following infection at 37° C., 5% CO2. After this period, cell-free supernatant samples were collected for analysis of reverse transcriptase activity as a measure of virus release. Following removal of supernatant samples, compound cytotoxicity was measured by addition of MTS to the plates for determination of cell viability. Wells were also examined microscopically and any abnormalities were noted.
(§4) A microtiter plate-based reverse transcriptase (RT) reaction was utilized (Buckheit et al., AIDS Research and Human Retroviruses 7:295-302, 1991). Tritiated thymidine triphosphate (3H-TTP, 80 Ci/mmol, NEN) was received in 1:1 dH2O:Ethanol at 1 mCi/mL. […]

[2] = test system: HIV-1 NL4-3; assay: Anti-HIV efficacy in fresh human PBMCs, reverse transcriptase readout, HIV-1 NL4-3; assay type: cell-based
Method: as §1, §2, §3, §4

[3] = test system: fresh human PBMCs; assay: MTS staining for PBMC viability to measure cytotoxicity; assay type: cell-based
Method: as §3
At assay termination, assay plates were stained with the soluble tetrazolium-based dye MTS (CellTiter 96 Reagent, Promega) to determine cell viability and quantify compound toxicity. The mitochondrial enzymes of metabolically active cells metabolize MTS to yield a soluble formazan product. This allows the rapid quantitative analysis of cell viability and compound cytotoxicity. […] At termination of the assay, 20 μL of MTS reagent was added per well. The microtiter plates were then incubated 4-6 hrs at 37° C. The incubation intervals were chosen based on empirically determined times for optimal dye reduction. Adhesive plate sealers were used in place of the lids, the sealed plate was inverted several times to mix the soluble formazan product and the plate was read spectrophotometrically at 490/650 nm with a Molecular Devices Vmax or SpectraMaxPlus plate reader.
(§5) Compounds were tested in the PBMC assay using the maximum high-test concentration possible based on the supplied stocks which are listed in table 3. Compounds were prepared at a 2× high-test concentration by combining drug stock with tissue culture media at a ratio of 5 μL of drug to 995 μL of media. This 2× high-test sample was subsequently serially diluted in tissue culture media using 1/2 log dilutions. This series of 2× concentrated drug was subsequently diluted 1:1 by combining with an equal volume of cells in media in the 96-well plates used for the assay.

[4] = test system: U1 cells latently infected with HIV-1; assay: U1 latency activation assay (TNF-α induced, supernatant reverse transcriptase); assay type: cell-based; conditions: U1 cell assay
Method: U1 cells were obtained from the AIDS Research and Reference Reagent Program and maintained under standard culture conditions in RPMI 1640 supplemented with 10% fetal bovine serum (heat inactivated), 2 mM L-glutamine, 100 U/mL penicillin and 100 μg/mL streptomycin. U1 cells are derived from the histocytic leukemia cell line U937, and contain an integrated copy of a cytokine and/or phorbol inducible provirus (HIV-1IIIB). Cultures were maintained in such a way as to ensure exponential growth of the populations. Addition of TNF-α to the cell culture induces HIV-1, so that inhibition of virus production indicates an inhibition of a post-integration function of the HIV-1 life cycle. This is where an inhibitor of Rev function would be expected to act. […]
(§6) At the time of the assay, cells were collected by centrifugation and counted by hemacytometer. If cell viability by Trypan Blue dye exclusion was less than 70% the assay was terminated. The cells were adjusted to 5×10^4 cells/mL and 100 μL placed in 96 well plates with 100 μL media containing a final concentration of 5 ng/mL TNF-α and the test compound. Cultures were incubated for 3 days and supernatants harvested. Compound toxicity was determined by MTS dye reduction. Virus expression was measured by supernatant reverse transcriptase activity.
Reverse transcriptase was assayed to measure virus particle release as described above for the PBMC assay.
as §5, with “U1 latency” for “PBMC”, “3. Compounds were tested using the maximum high-test concentration possible based on the supplied stocks.” for “3.”, “assay. Temacrazine a known inhibitor of HIV transcription was used as a control compound that is active in the post-integration part of the HIV life cycle.” for “assay.”
as §5, with “were tested using the” for “were tested in the PBMC assay using the”, “the supplied stocks. Compounds were” for “the supplied stocks which are listed in table 3. Compounds were”, “2× high-test (HT) sample was” for “2× high-test sample was”

[5] = test system: U1 cells; assay: MTS staining for cell viability in U1 cell assay; assay type: cell-based; conditions: analogs, Table 8, MTS, read-out: TC50 (the source's name)
Method: as §6
(§7) At assay termination, the assay plates were stained with the soluble tetrazolium-based dye MTS (CellTiter 96 Reagent, Promega) to determine cell viability and quantify compound toxicity as described for the PBMC assay.
as §5, with “U1 latency” for “PBMC”, “3. Compounds were tested using the maximum high-test concentration possible based on the supplied stocks.” for “3.”, “assay. Temacrazine a known inhibitor of HIV transcription was used as a control compound that is active in the post-integration part of the HIV life cycle.” for “assay.”
as §5, with “were tested using the” for “were tested in the PBMC assay using the”, “the supplied stocks. Compounds were” for “the supplied stocks which are listed in table 3. Compounds were”, “2× high-test (HT) sample was” for “2× high-test sample was”

[6] = biological target: T1, HIV-1 Rev (Human immunodeficiency virus type 1 group M subtype B, UniProt P04618); assay: cell-based
T1 construct: expressed in transfected cells
Method: The eight compounds listed in Table 1 were also tested in an assay that measured HIV-1 Rev function. […] The reporter used for these assays is the Renilla Luciferase protein, which is an enzyme that produces detectable light when mixed with certain chemicals. For this assay, a cell line has been developed in which the production of the reporter by the cells requires the function of HIV-1 Rev. Therefore, if a drug candidate inhibits the function of Rev, it decreases the amount of the reporter produced by the cells. By using Renilla Luciferase as the reporter, the inhibition of Rev is easily detected as a decrease in the amount of light produced by the cells when mixed with the appropriate chemicals.
as §5, with “Rev” for “PBMC”, “as shown” for “which are listed”, “Table” for “table”

[7] = test system: HeLa; assay: HIV-1 Rev assay toxicity/non-specificity readout (Firefly Luciferase); assay type: cell-based; conditions: 50% inhibition of Firefly Luciferase (toxicity/non-specificity), 24 hours; read-out: TC50 (the source's name)
Method: The eight compounds listed in Table 1 were also tested in an assay that measured HIV-1 Rev function. The HIV-1 Rev assay is based upon the use of a reporter for detecting whether drug candidates are capable of inhibiting the function of the viral Rev protein. The reporter used for these assays is the Renilla Luciferase protein, which is an enzyme that produces detectable light when mixed with certain chemicals. For this assay, a cell line has been developed in which the production of the reporter by the cells requires the function of HIV-1 Rev. Therefore, if a drug candidate inhibits the function of Rev, it decreases the amount of the reporter produced by the cells. By using Renilla Luciferase as the reporter, the inhibition of Rev is easily detected as a decrease in the amount of light produced by the cells when mixed with the appropriate chemicals. Furthermore, the cell line for this assay has been engineered to use a second similar reporter (Firefly Luciferase) that detects whether drug candidates are toxic.
as §5, with “Rev” for “PBMC”, “as shown” for “which are listed”, “Table” for “table”, “assay. Representative data for two of the compounds is also depicted in FIG. 5.” for “assay.”
Leptomycin B is a control compound known to inhibit Rev function.

[8] = MTS staining for cell viability in U1 cell assay; assay type: cell-based; conditions: human, U1 cells stimulated with TNF-α, read-out: TC50
Method: as §6, §7
as §5, with “U1 latency” for “PBMC”, “3. Compounds were tested using the maximum high-test concentration possible based on the supplied stocks.” for “3.”, “assay. Temacrazine a known inhibitor of HIV transcription was used as a control compound that is active in the post-integration part of the HIV life cycle.” for “assay.”
as §5, with “were tested using the” for “were tested in the PBMC assay using the”, “the supplied stocks. Compounds were” for “the supplied stocks which are listed in table 3. Compounds were”, “2× high-test (HT) sample was” for “2× high-test sample was”

T1 sequence (P04618 whole entry, looked up): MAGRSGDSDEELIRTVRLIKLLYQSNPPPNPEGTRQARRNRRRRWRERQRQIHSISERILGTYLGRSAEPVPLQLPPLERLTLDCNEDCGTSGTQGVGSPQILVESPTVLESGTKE

## Cc1cn([C@H]2C[C@H](N=[N+]=[N-])[C@@H](CO)O2)c(=O)[nH]c1=O [AZT, reference compound]
[1]; HIV-1 BR/93/021, PBMCs
  TI (TC50/IC50): >404.86
[1]; HIV-1 BR/93/021, fresh human PBMCs, seven days, RT activity
  IC50: 2.47 nM
[2]; HIV-1 NL4-3, PBMCs
  TI (TC50/IC50): >1612.90
[2]; HIV-1 NL4-3, fresh human PBMCs, seven days, RT activity
  IC50: 0.62 nM
[3]
  CC50: > 1000 nM

## Fc1ccccc1-c1nc(Nc2cccc(C(F)(F)F)c2)c2ccccc2n1 [Compound 748]
[4]; analogs, Table 8
  IC50: 10.5 µM
[5]
  CC50: 33 µM

## COc1ccc(Nc2nc(-c3ccccc3F)nc3ccccc23)cc1 [Compound 749]
[4]; analogs, Table 8
  IC50: 2.05 µM
[5]
  CC50: 19.5 µM

## Oc1ccccc1-c1nc(Nc2ccc(F)c(F)c2)c2ccccc2n1 [Compound 750]
[4]; analogs, Table 8
  IC50: > 75 µM
[5]
  CC50: > 75 µM

## COc1ccccc1Nc1nc(-c2ccccc2O)nc2ccccc12 [Compound 751]
[4]; analogs, Table 8
  IC50: 71.4 µM
[5]
  CC50: > 75 µM

## COC(=O)c1cccc(Nc2nc(-c3ccccc3O)nc3ccccc23)c1 [Compound 752]
[4]; analogs, Table 8
  IC50: > 75 µM
[5]
  CC50: > 75 µM

## Clc1ccc(-c2nc(Nc3ccc(Oc4ccccc4)cc3)c3ccccc3n2)cc1 [Compound 753]
[4]; analogs, Table 8
  IC50: 47.1 µM
[5]
  CC50: 48 µM

## CC(=O)Nc1ccc(Nc2nc(-c3ccccc3)nc3ccccc23)cc1 [Compound 754]
[4]; analogs, Table 8
  IC50: 3.69 µM
[5]
  CC50: 15.1 µM

## CC(=O)c1ccc(Nc2nc(-c3ccccc3)nc3ccccc23)cc1 [Compound 755]
[4]; analogs, Table 8
  IC50: 1.78 µM
[5]
  CC50: > 75 µM

## Cc1nc(Oc2ccccc2)c2ccccc2n1 [Compound 756]
[4]; analogs, Table 8
  IC50: 1.74 µM
[5]
  CC50: 52 µM

## CCC(=C/[C@H](C)C/C=C/C(C)=C/[C@@H](C)C(=O)[C@@H](C)[C@H](O)[C@@H](C)C/C(C)=C/C(=O)O)/C=C/[C@@H]1OC(=O)C=C[C@@H]1C [Leptomycin B, reference compound]
[6]; 50% inhibition of Renilla Luciferase, 24 hours, HeLa reporter line, read-out: IC50
  IC50: 8.22 nM and 8.17 nM
[6]; Rev assay
  TI (TC50/IC50): 2.43 and 2.35
[7]
  CC50: 20 nM and 19.2 nM

## O=c1c2ccccc2n2nnc3ccc(NCCCN4CCN(CCCNc5ccc6nnn7c8ccccc8c(=O)c5c67)CC4)c1c32 [Temacrazine, reference compound]
[4]; Human immunodeficiency virus 1, 72 h, Table 6, 5 ng/mL TNF-α, 3 days, RT activity
  IC50: 0.002 µM
[4]; Table 6
  TI (TC50/IC50): >250
[8]; Table 6, MTS
  CC50 at 3 days: > 500 nM
[8]; Table 8, control, MTS
  CC50 at 3 days: > 500 nM
